Experimental data taken from patent US20070232904A1, “Application of Hyaluronic Acid to Sentinel Lymph Node Identification” (OAKLEY, INC., priority 2004, published 2007).

Test system: sentinel lymph node (SLN)
Assay: Sentinel lymph node detection after submucosal injection in stomach and small intestine of laparotomized pig, observed by color change
Assay type: in vivo
Details: 0.5 mL submucosal
Description: A pig was laparotomized under general anesthesia and the mixture of the sodium hyaluronate and the patent blue prepared in (1) above and patent blue alone as a control were each injected at two locations which were in the tissues (submucosal) of the stomach and small intestine at 0.5 mL each, and migration from the lymphatic vessels to the lymph nodes was monitored for 3 hours after injection based on the changes in color under laparotomy. […] In addition, the colored lymph nodes were investigated histologically after 3 hours and after 24 hours. A pig was laparotomized under general anesthesia and the mixture of the sodium hyaluronate and the ferumoxides injection solution prepared in (1) above and the ferumoxides injection solution alone as a control were each injected at two locations which were in the tissues (submucosal) of the stomach and small intestine at 0.5 mL each, and migration from the lymphatic vessels to the lymph nodes was monitored for 3 hours after injection based on the changes in color under laparotomy. […] In addition, the colored lymph nodes were investigated histologically after 3 hours and after 24 hours. […]

time to almost complete disappearance from the associated lymphatic system (after injection): ≤ 2 h
SMILES: CCN(CC)c1ccc(C(=C2C=CC(=[N+](CC)CC)C=C2)c2cc(O)c(S(=O)(=O)O)cc2S(=O)(=O)O)cc1 [patent blue]
time until staining of the lymphatic system / SLN after injection (stomach and small intestine wall): several minutes
